In this experiment the test system is LXRα and/or LXRβ. Put plainly: LXR/LXRE co-transfection assay (luciferase reporter, CV-1 cells). As to conditions: IC50 or EC50 for LXR (LXRα and/or LXRβ, not distinguished), tested as described in Example 109, CV-1 cells. The format is cell-based, human. In short, it runs like this: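 Luciferase readout after 20 h compound exposure at 37 °C in CV-1 cells transiently expressing human LXRα or LXRβ with RXRα and an LXRE-driven reporter. Dose-response over 8 points at ½-log spacing, 4 wells each, fitted for EC50/IC50; values average ≥3 independent experiments, efficacy as % of high control.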
(In general: Reporter assays use an easily measured gene product as a stand-in for the process of interest.)

As usually defined, the EC50 is the concentration at which the effect is half-maximal. A higher EC50 goes with lower potency in that assay. `CC(C)(O)c1cc(-c2ccc(-c3cccc(S(C)(=O)=O)c3)s2)n(-c2cccc(C(F)(F)F)c2F)n1` [Example 1333, 2-(1-[2-fluoro-3-(trifluoromethyl)phenyl]-5-{5-[3-(methylsulfonyl)phenyl]-2-thienyl}-1H-pyrazol-3-yl)propan-2-ol] yielded an EC50 of 1000 to 10000 nM.

As for `CC(C)(O)c1cc(-c2ccc(-c3cccc(S(C)(=O)=O)c3)s2)n(-c2cc(F)ccc2Cl)n1` [Example 1334, 2-[1-(2-chloro-5-fluorophenyl)-5-{5-[3-(methylsulfonyl)phenyl]-2-thienyl}-1H-pyrazol-3-yl]propan-2-ol], the EC50 was below 1000 nM. Under `Cc1cccc(Cl)c1-n1nc(C(C)(C)O)cc1-c1ccc(-c2cccc(S(C)(=O)=O)c2)s1` [Example 1335, 2-[1-(2-chloro-6-methylphenyl)-5-{5-[3-(methylsulfonyl)phenyl]-2-thienyl}-1H-pyrazol-3-yl]propan-2-ol] stands below 1000 nM; under `CC(C)(O)c1cc(-c2ccc(-c3cccc(S(C)(=O)=O)c3)s2)n(-c2cc(Cl)ccc2F)n1` [Example 1336, 2-[1-(5-chloro-2-fluorophenyl)-5-{5-[3-(methylsulfonyl)phenyl]-2-thienyl}-1H-pyrazol-3-yl]propan-2-ol], below 1000 nM. Then `C/C(=N\OCCN(C)C)c1cc(-c2ccc(-c3cccc(S(C)(=O)=O)c3)s2)n(-c2ccccc2Cl)n1` [Example 1337, (1E)-1-[1-(2-chlorophenyl)-5-{5-[3-(methylsulfonyl)phenyl]-2-thienyl}-1H-pyrazol-3-yl]ethanone O-[2-(dimethylamino)ethyl]oxime], with below 1000 nM.

The compound `CC(C)(O)c1cc(-c2ccc(-c3cccc(S(C)(=O)=O)c3)s2)n(-c2cccc(C(F)(F)F)c2O)n1` [Example 1338, 2-[3-(1-hydroxy-1-methylethyl)-5-{5-[3-(methylsulfonyl)phenyl]-2-thienyl}-1H-pyrazol-1-yl]-6-(trifluoromethyl)phenol] displayed a 50% effective concentration (EC50) of 1000 to 10000 nM.

The compound `Cc1c(Cl)cccc1-n1nc(C(C)(C)O)cc1-c1ccc(-c2cccc(S(C)(=O)=O)c2)s1` [Example 1340, 2-[1-(3-chloro-2-methylphenyl)-5-{5-[3-(methylsulfonyl)phenyl]-2-thienyl}-1H-pyrazol-3-yl]propan-2-ol] displayed a concentration giving a half-maximal response (EC50) below 1000 nM. Then `CC(C)(O)c1cc(-c2ccc(-c3cccc(S(C)(=O)=O)c3)s2)n(-c2c(Cl)cc(Cl)cc2C(F)(F)F)n1` [Example 1341, 2-(1-[2,4-dichloro-6-(trifluoromethyl)phenyl]-5-{5-[3-(methylsulfonyl)phenyl]-2-thienyl}-1H-pyrazol-3-yl)propan-2-ol], with 1000 to 10000 nM. Then `CC(C)(O)c1cc(-c2ccc(-c3cccc(S(C)(=O)=O)c3)s2)n(-c2cccc3c2OC(F)(F)O3)n1` [Example 1342, 2-[1-(2,2-difluoro-1,3-benzodioxol-4-yl)-5-{5-[3-(methylsulfonyl)phenyl]-2-thienyl}-1H-pyrazol-3-yl]propan-2-ol], with below 1000 nM; and `CC(C)(O)c1cc(-c2ccc(-c3cccc(S(C)(=O)=O)c3)s2)n(-c2ccncc2)n1` [Example 1343, 2-(5-{5-[3-(methylsulfonyl)phenyl]-2-thienyl}-1-pyridin-4-yl-1H-pyrazol-3-yl)propan-2-ol], with 1000 to 10000 nM; and `CC(C)(O)c1cc(-c2ccc(-c3cccc(S(C)(=O)=O)c3)s2)n(-c2c(F)cccc2Cl)n1` [Example 1344, 2-[1-(2-chloro-6-fluorophenyl)-5-{5-[3-(methylsulfonyl)phenyl]-2-thienyl}-1H-pyrazol-3-yl]propan-2-ol], with below 1000 nM. Then `CC(C)c1ccccc1-n1nc(C(C)(C)O)cc1-c1ccc(-c2cccc(S(C)(=O)=O)c2)s1` [Example 1345, 2-(1-[2-(1-methylethyl)phenyl]-5-{5-[3-(methylsulfonyl)phenyl]-2-thienyl}-1H-pyrazol-3-yl)propan-2-ol], with below 1000 nM; and `CC(C)(O)c1cc(-c2ccc(-c3cccc(S(C)(=O)=O)c3)s2)n(-c2cccnc2)n1` [Example 1346, 2-(5-{5-[3-(methylsulfonyl)phenyl]-2-thienyl}-1-pyridin-3-yl-1H-pyrazol-3-yl)propan-2-ol], with below 1000 nM; and `CC(C)(O)c1cc(-c2ccc(-c3cccc(S(C)(=O)=O)c3)s2)n(-c2cc(C(F)(F)F)ccc2Cl)n1` [Example 1347, 2-(1-[2-chloro-5-(trifluoromethyl)phenyl]-5-{5-[3-(methylsulfonyl)phenyl]-2-thienyl}-1H-pyrazol-3-yl)propan-2-ol], with 1000 to 10000 nM. The compound `CC(C)(O)c1nn(-c2c(Cl)cccc2Cl)c(-c2ccc(-c3cccc(S(C)(=O)=O)c3)s2)c1Cl` [Example 1348, 2-[4-chloro-1-(2,6-dichlorophenyl)-5-{5-[3-(methylsulfonyl)phenyl]-2-thienyl}-1H-pyrazol-3-yl]propan-2-ol] came in with an EC50 below 1000 nM. Under `CC(C)(O)c1nn(-c2ccccc2C(F)(F)F)c(-c2ccc(-c3cccc(S(C)(=O)=O)c3)s2)c1Br` [Example 1349, 2-(4-bromo-5-{5-[3-(methylsulfonyl)phenyl]-2-thienyl}-1-[2-(trifluoromethyl)phenyl]-1H-pyrazol-3-yl)propan-2-ol] stands below 1000 nM; under `CC(C)(O)c1nn(-c2ccccc2C(F)(F)F)c(-c2ccc(-c3cccc(S(C)(=O)=O)c3)s2)c1Cl` [Example 1350, 2-(4-chloro-5-{5-[3-(methylsulfonyl)phenyl]-2-thienyl}-1-[2-(trifluoromethyl)phenyl]-1H-pyrazol-3-yl)propan-2-ol], below 1000 nM. Turning to `CC(C)(O)c1cc(-c2ccc(-c3cccc(S(C)(=O)=O)c3)s2)n(-c2cnccc2C(F)(F)F)n1` [Example 1351, 2-(5-{5-[3-(methylsulfonyl)phenyl]-2-thienyl}-1-[4-(trifluoromethyl)pyridin-3-yl]-1H-pyrazol-3-yl)propan-2-ol], the concentration giving a half-maximal response (EC50) lay in the range of 1000 to 10000 nM.

Turning to `Cc1cccc(C)c1-n1nc(C(C)(C)O)cc1-c1ccc(-c2cccc(S(C)(=O)=O)c2)s1` [Example 1352, 2-[1-(2,6-dimethylphenyl)-5-{5-[3-(methylsulfonyl)phenyl]-2-thienyl}-1H-pyrazol-3-yl]propan-2-ol], the EC50 was below 1000 nM. Regarding `CC(C)(O)c1cc(-c2ccc(-c3cccc(S(C)(=O)=O)c3)s2)n(-c2c(F)cccc2C(F)(F)F)n1` [Example 1353, 2-(1-[2-fluoro-6-(trifluoromethyl)phenyl]-5-{5-[3-(methylsulfonyl)phenyl]-2-thienyl}-1H-pyrazol-3-yl)propan-2-ol], the concentration giving a half-maximal response (EC50) is below 1000 nM. Then `COC(=O)CNC(=O)c1ccc(-c2cc(C(F)(F)F)nn2-c2ccccc2Cl)cc1` [Example 1354, methyl N-({4-[1-(2-chlorophenyl)-3-(trifluoromethyl)-1H-pyrazol-5-yl]phenyl}carbonyl)glycinate], with 1000 to 10000 nM; and `O=C(NC1CCSC1=O)c1ccc(-c2cc(C(F)(F)F)nn2-c2ccccc2Cl)cc1` (stereo not shown) [Example 1355, 4-[1-(2-chlorophenyl)-3-(trifluoromethyl)-1H-pyrazol-5-yl]-N-(2-oxotetrahydro-3-thienyl)benzamide], with 1000 to 10000 nM. Then `COC(=O)CCNC(=O)c1ccc(-c2cc(C(F)(F)F)nn2-c2ccccc2Cl)cc1` [Example 1356, methyl N-({4-[1-(2-chlorophenyl)-3-(trifluoromethyl)-1H-pyrazol-5-yl]phenyl}carbonyl)-beta-alaninate], with 1000 to 10000 nM; and `CC(C)(O)c1nn(-c2cccc(Cl)c2F)c(-c2ccc(-c3cccc(S(C)(=O)=O)c3)s2)c1Br` [Example 1357, 2-[4-bromo-1-(3-chloro-2-fluorophenyl)-5-{5-[3-(methylsulfonyl)phenyl]-2-thienyl}-1H-pyrazol-3-yl]propan-2-ol], with below 1000 nM; and `CCc1ccccc1-n1nc(C(C)(C)O)c(Br)c1-c1ccc(-c2cccc(S(C)(=O)=O)c2)s1` [Example 1358, 2-[4-bromo-1-(2-ethylphenyl)-5-{5-[3-(methylsulfonyl)phenyl]-2-thienyl}-1H-pyrazol-3-yl]propan-2-ol], with below 1000 nM. Under `CC(C)(O)c1nn(-c2ccccc2OC(F)(F)F)c(-c2ccc(-c3cccc(S(C)(=O)=O)c3)s2)c1Br` [Example 1359, 2-(4-bromo-5-{5-[3-(methylsulfonyl)phenyl]-2-thienyl)-1-{2-[(trifluoromethyl)oxy]phenyl}-1H-pyrazol-3-yl)propan-2-ol] stands below 1000 nM; under `CC(C)(O)c1nn(-c2ccccc2Br)c(-c2ccc(-c3cccc(S(C)(=O)=O)c3)s2)c1Br` [Example 1360, 2-[4-bromo-1-(2-bromophenyl)-5-{5-[3-(methylsulfonyl)phenyl]-2-thienyl}-1H-pyrazol-3-yl]propan-2-ol], below 1000 nM; under `Cc1c(F)cccc1-n1nc(C(C)(C)O)cc1-c1ccc(-c2cccc(S(C)(=O)=O)c2)s1` [Example 1361, 2-[1-(3-fluoro-2-methylphenyl)-5-{5-[3-(methylsulfonyl)phenyl]-2-thienyl}-1H-pyrazol-3-yl]propan-2-ol], below 1000 nM. `O=C(O)CNC(=O)c1ccc(-c2cc(C(F)(F)F)nn2-c2ccccc2Cl)cc1` [Example 1362, N-({4-[1-(2-chlorophenyl)-3-(trifluoromethyl)-1H-pyrazol-5-yl]phenyl}carbonyl)glycine] came in with a concentration giving a half-maximal response (EC50) of 1000 to 10000 nM. Under `O=C(O)CCNC(=O)c1ccc(-c2cc(C(F)(F)F)nn2-c2ccccc2Cl)cc1` [Example 1363, N-({4-[1-(2-chlorophenyl)-3-(trifluoromethyl)-1H-pyrazol-5-yl]phenyl}carbonyl)-beta-alanine] stands 1000 to 10000 nM. Then `CS(=O)(=O)CCNC(=O)c1ccc(-c2cc(C(F)(F)F)nn2-c2ccccc2Cl)cc1` [Example 1364, 4-[1-(2-chlorophenyl)-3-(trifluoromethyl)-1H-pyrazol-5-yl]-N-[2-(methylsulfonyl)ethyl]benzamide], with 1000 to 10000 nM.
